Measurements: patent US20110182909A1, “Glufosfamide combination therapy” (priority 2004, published 2011)
pIC50: −log10 of the molar value. Where two headings read alike, the source gives them in different places.

Columns and labels:
[1] = test system: Ramos cells (Burkitt's lymphoma); assay: Alamar Blue cell proliferation assay (3 days); format: cell-based; settings: for Cell proliferation as % control: 3 days; for pIC50: single agent
Description: Ramos cells lines (Burkitt's lymphoma) were obtained from the American Type Culture Collection (ATCC, Rockville, Md.). All cell lines were cultured in Dulbecco's modified Eagle's medium supplemented with 10% fetal calf serum, sodium pyruvate, nonessential amino acids, L-glutamine, vitamins, and antibiotics. Cells were maintained in a humidified incubator containing 5% CO2, 21% O2, at 37° C. All chemical reagents were purchased from Sigma Chemical Co. (St. Louis, Mo.) unless otherwise specified. Glufosfamide was provided directly by Threshold Pharmaceuticals and reconstituted in PBS freshly for each study.
To determine the effect of the combinations of the present invention on cell proliferation, the antiproliferative activity of these combinations was tested in a multi-well Alamar Blue based assay (at 3 days). Cell growth in the presence and absence of the test compound as tabulated in Table 1 was compared, as measured by a fluorescence plate reader at excitation 550 nm and emission 590 nm (see Biosource International Inc., Tech Application Notes, Use of Alainar Blue in the measurement of Cell Viability and Toxicity, Determining IC50). Ramos cells (Burkitt's lymphoma) (ATCC Catalog #CRL-1596), 3000 cells/well/180 μl) were seeded in a 96 well plate in RPMI medium (Invitrogen Corporation, Carlsbad, Calif.) and incubated overnight. After 24 hours, these plates were divided into Control group and 3 day treatment group.
A test compound (Glufosfamide, Carboplatin, or Etoposide) was added to each plate in the treatment groups at a concentration as tabulated in Tables 1A-1D (in 200 μl of medium, respectively). The cells were incubated for 3 days, followed by staining with AlamarBlue. In the Control group, AlamarBlue was added to the plate at (i) day 0 and (ii) day 3 and measured to establish the control reading. In all the groups, the capacity of the cells to proliferate was measured 17 hours after addition of AlamarBlue using a fluorescence plate reader at excitation 550 nm and emission 590 nm. […] Dose dependent percent inhibition was calculated using Graphpad Prism® (GraphPad Software, Inc.). These values were then applied against the Combination Index (CI) method as described by Chou and Talalay (Chou, T. C. and Talalay, P., Quantitative analysis of dose-effect relationships: The combined effects of multiple drugs or enzyme inhibitors. Adv. Enz. Regul. 22:27-55, 1984) using CalcuSyn software (Biosoft).
The effect of the combinations of the present invention on cell proliferation was determined by comparing cell growth in the presence and absence of the test combinations as tabulated in the tables below according to the procedure described above.

[2] = in contrast to ifosfamide; cited from earlier work
[3] = mesna given concomitantly with ifosfamide; cited from earlier work

Q: Which results are given for N.N.O=C([O-])C1(C(=O)[O-])CCC1.[Pt+2] [Carboplatin]?
A: Cell proliferation as % control ([1]; Table 1A, Carboplatin 0.4 μM): 97 % control; Cell proliferation as % control ([1]; Table 1A, Carboplatin 3.7 μM): 94 % control; Cell proliferation as % control ([1]; Table 1A, Carboplatin 11 μM): 68 % control; Cell proliferation as % control ([1]; Table 1A, Carboplatin 33 μM): 46 % control; Cell proliferation as % control ([1]; Table 1A, Carboplatin 100 μM): 0 % control; Cell proliferation as % control ([1]; Table 1A, Carboplatin 300 μM): 0 % control; pIC50 ([1]; Table 1B, 3 days (from Table 1A), read-out: IC50): 4.60; Cell proliferation as % control ([1]; Table 1C, Carboplatin 0.4 μM): 98 % control; Cell proliferation as % control ([1]; Table 1C, Carboplatin 3.7 μM): 89 % control; Cell proliferation as % control ([1]; Table 1C, Carboplatin 11 μM): 74 % control; Cell proliferation as % control ([1]; Table 1C, Carboplatin 33 μM): 45 % control; Cell proliferation as % control ([1]; Table 1C, Carboplatin 100 μM): 0 % control; Cell proliferation as % control ([1]; Table 1C, Carboplatin 300 μM): 0 % control; pIC50 ([1]; Table 1D, 3 days (from Table 1C), read-out: IC50): 4.60

Q: With COc1cc([C@@H]2c3cc4c(cc3[C@@H](O[C@@H]3O[C@@H]5CO[C@@H](C)O[C@H]5[C@H](O)[C@H]3O)[C@H]3COC(=O)[C@H]23)OCO4)cc(OC)c1O [Etoposide] as the compound, how does the pIC50 ([1]; Homo sapiens, 72 h, Table 1B, 3 days (from Table 1A), read-out: IC50) read?
A: > 6.89

Q: And the pIC50 ([1]; Homo sapiens, 72 h, Table 1D, 3 days (from Table 1C), read-out: IC50)?
A: 7.12

Q: What about the “Cell proliferation as % control” value ([1]; Table 1A, Etoposide 0.13 μM) of the same compound?
A: 37 % control

Q: And the “Cell proliferation as % control” value ([1]; Table 1A, Etoposide 0.4 μM)?
A: 26 % control

Q: What about the “Cell proliferation as % control” value ([1]; Table 1A, Etoposide 3.7 μM) of the same compound?
A: 3 % control

Q: And the “Cell proliferation as % control” value ([1]; Table 1A, Etoposide 11 μM)?
A: 0 % control

Q: And the “Cell proliferation as % control” value ([1]; Table 1A, Etoposide 33 μM)?
A: 0 % control

Q: And the “Cell proliferation as % control” value ([1]; Table 1A, Etoposide 100 μM)?
A: 0 % control

Q: And the “Cell proliferation as % control” value ([1]; Table 1C, Etoposide 0.004 μM)?
A: 97 % control

Q: What about the “Cell proliferation as % control” value ([1]; Table 1C, Etoposide 0.013 μM) of the same compound?
A: 91 % control

Q: What about the “Cell proliferation as % control” value ([1]; Table 1C, Etoposide 0.04 μM) of the same compound?
A: 62 % control

Q: And the “Cell proliferation as % control” value ([1]; Table 1C, Etoposide 0.37 μM)?
A: 35 % control

Q: And the “Cell proliferation as % control” value ([1]; Table 1C, Etoposide 1.1 μM)?
A: 14 % control

Q: What about the “Cell proliferation as % control” value ([1]; Table 1C, Etoposide 3.3 μM) of the same compound?
A: 0 % control

Q: And the “Cell proliferation as % control” value ([1]; Table 1C, Etoposide 10 μM)?
A: 0 % control

Q: For O=P(NCCCl)(NCCCl)OC1OC(CO)C(O)C(O)C1O [Glufosfamide, α-D-glucosyl-ifosfamide mustard], which production of chloroacetaldehyde [2] is on record?
A: produces less chloroacetaldehyde

Q: And the “release of the toxic metabolite acrolein” value [2]?
A: does not release the toxic metabolite acrolein

Q: What about the pIC50 ([1]; Homo sapiens, 72 h, Table 1B, 3 days (from Table 1A)) of the same compound?
A: 3.74

Q: And the pIC50 ([1]; Homo sapiens, 72 h, Table 1D, 3 days (from Table 1C))?
A: 3.92

Q: What about the “Cell proliferation as % control” value ([1]; Table 1A, Glufosfamide 0.7 μM) of the same compound?
A: 91 % control

Q: What about the “Cell proliferation as % control” value ([1]; Table 1A, Glufosfamide 2 μM) of the same compound?
A: 92 % control

Q: And the “Cell proliferation as % control” value ([1]; Table 1A, Glufosfamide 6 μM)?
A: 94 % control

Q: And the “Cell proliferation as % control” value ([1]; Table 1A, Glufosfamide 19 μM)?
A: 81 % control

Q: What about the “Cell proliferation as % control” value ([1]; Table 1A, Glufosfamide 56 μM) of the same compound?
A: 65 % control

Q: What about the “Cell proliferation as % control” value ([1]; Table 1A, Glufosfamide 167 μM) of the same compound?
A: 65 % control

Q: And the “Cell proliferation as % control” value ([1]; Table 1A, Glufosfamide 500 μM)?
A: 0 % control

Q: And the “Cell proliferation as % control” value ([1]; Table 1C, Glufosfamide 9 μM)?
A: 91 % control

Q: And the “Cell proliferation as % control” value ([1]; Table 1C, Glufosfamide 19 μM)?
A: 79 % control

Q: What about the “Cell proliferation as % control” value ([1]; Table 1C, Glufosfamide 37.5 μM) of the same compound?
A: 70 % control

Q: And the “Cell proliferation as % control” value ([1]; Table 1C, Glufosfamide 75 μM)?
A: 64 % control

Q: And the “Cell proliferation as % control” value ([1]; Table 1C, Glufosfamide 150 μM)?
A: 54 % control

Q: What about the “Cell proliferation as % control” value ([1]; Table 1C, Glufosfamide 300 μM) of the same compound?
A: 11 % control

Q: And the “Cell proliferation as % control” value ([1]; Table 1C, Glufosfamide 600 μM)?
A: 0 % control

Q: For O=S(=O)(O)CCS [mesna, mercaptoethane sulfonate sodium], which “patients who do not respond to mesna and develop hematuria” value [3] is on record?
A: up to 6%
